Columns and labels:
Assay type in all cases: cell-based
[1] = test system: Jurkat cells; experiment: Toxilight BioAssay (adenylate kinase release), Jurkat; details: 24 hours exposure, mean ± SD of triplicates
Description: (§1) Assessment of Cellular Toxicity (Toxilight Assay and CellTiter-Glo Assay)
(§2) Purpose. To detect potential cellular toxicity of present LFA-1 inhibitors two complementary assays were chosen: the Toxilight™ BioAssay (Lonza) and the CellTiter-Glo™ Luminescent Cell Viability Assay (Promega). The Toxilight assay measures cell death via the release of the cytosolic enzyme adenylate kinase into the supernatant of treated cell cultures. The CellTiter-Glo assay directly determines the key energy metabolite ATP, resulting in sensitive quantitation of the number of healthy cells in culture.
(§3) Both assays were used with two different cell lines: the Jurkat and HepG2 cell lines. Jurkat, a human lymphocytic leukemia cell line, was utilized to assess the effect of the compounds on LFA-1 expressing cells. HepG2, a human hepatocyte cell line, was used to assess the response of liver cells where drugs are metabolized. Both assays included the use of untreated cells, and cells treated with amiodarone or 0.5% Triton X 100 as cytotoxic controls.
(§4) Jurkat cells and HepG2 cells were cultured in RPMI 1640 containing 10% FCS or DMEM containing 10% FCS under standard conditions (recommended by ATCC). Compounds were dissolved in DMSO and serially pre-diluted in DMSO (100%) to avoid precipitation of the compounds, before final dilution steps in culture medium containing FCS were performed. The final DMSO concentration was kept constant at 0.5% in all samples.
(§5) The test compounds and controls were exposed to the cells for 24 hours respectively at 37° C. Then adenylate kinase activity was quantified in the supernatant of the cell cultures using the ToxiLight™ reagent. In an independent set of experiments ATP content was measured by adding the CellTiter-Glo™ reagent according to manufacturer's instructions.

[2] = molecular target: T1, LFA-1 (Homo sapiens, UniProt P20701); experiment: V well cell adhesion assay, LFA-1-mediated Jurkat cell binding to ICAM-1 (LFA-1 adhesion); details: Jurkat cells on ICAM-1/Fc; mean ±SD of ≥3 independent experiments in triplicates or single experiments in triplicates
T1 construct: endogenous in cells; host or cells: Jurkat cells
T1 sequence (P20701 26-1170): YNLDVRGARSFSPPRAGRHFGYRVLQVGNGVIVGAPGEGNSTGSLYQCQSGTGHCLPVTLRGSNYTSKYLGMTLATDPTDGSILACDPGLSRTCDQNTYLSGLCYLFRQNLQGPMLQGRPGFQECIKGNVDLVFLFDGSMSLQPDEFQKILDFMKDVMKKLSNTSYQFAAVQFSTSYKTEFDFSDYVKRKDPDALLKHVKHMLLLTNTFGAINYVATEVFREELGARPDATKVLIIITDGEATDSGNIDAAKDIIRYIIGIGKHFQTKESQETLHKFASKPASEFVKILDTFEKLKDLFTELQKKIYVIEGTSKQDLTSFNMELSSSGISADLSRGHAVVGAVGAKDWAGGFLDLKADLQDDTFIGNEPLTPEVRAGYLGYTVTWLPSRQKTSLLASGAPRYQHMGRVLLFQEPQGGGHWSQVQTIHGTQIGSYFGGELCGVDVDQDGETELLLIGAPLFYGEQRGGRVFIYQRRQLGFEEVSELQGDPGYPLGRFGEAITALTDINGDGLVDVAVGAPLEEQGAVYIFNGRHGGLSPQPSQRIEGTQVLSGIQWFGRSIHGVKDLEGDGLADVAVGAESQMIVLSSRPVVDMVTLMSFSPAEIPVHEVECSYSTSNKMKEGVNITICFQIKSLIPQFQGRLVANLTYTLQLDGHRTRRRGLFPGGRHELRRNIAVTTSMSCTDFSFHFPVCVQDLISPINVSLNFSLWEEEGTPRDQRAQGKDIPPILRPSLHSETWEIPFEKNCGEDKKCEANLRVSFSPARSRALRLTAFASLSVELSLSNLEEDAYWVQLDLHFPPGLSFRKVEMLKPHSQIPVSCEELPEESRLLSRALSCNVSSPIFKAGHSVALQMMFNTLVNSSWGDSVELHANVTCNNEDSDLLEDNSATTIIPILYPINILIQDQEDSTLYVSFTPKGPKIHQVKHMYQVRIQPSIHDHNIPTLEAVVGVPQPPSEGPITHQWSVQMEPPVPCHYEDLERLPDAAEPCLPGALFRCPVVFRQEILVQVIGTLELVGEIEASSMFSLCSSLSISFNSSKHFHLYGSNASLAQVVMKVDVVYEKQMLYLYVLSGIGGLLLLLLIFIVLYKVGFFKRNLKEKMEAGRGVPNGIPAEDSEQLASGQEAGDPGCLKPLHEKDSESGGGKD
T1 sequence (P05107 23-769 partner): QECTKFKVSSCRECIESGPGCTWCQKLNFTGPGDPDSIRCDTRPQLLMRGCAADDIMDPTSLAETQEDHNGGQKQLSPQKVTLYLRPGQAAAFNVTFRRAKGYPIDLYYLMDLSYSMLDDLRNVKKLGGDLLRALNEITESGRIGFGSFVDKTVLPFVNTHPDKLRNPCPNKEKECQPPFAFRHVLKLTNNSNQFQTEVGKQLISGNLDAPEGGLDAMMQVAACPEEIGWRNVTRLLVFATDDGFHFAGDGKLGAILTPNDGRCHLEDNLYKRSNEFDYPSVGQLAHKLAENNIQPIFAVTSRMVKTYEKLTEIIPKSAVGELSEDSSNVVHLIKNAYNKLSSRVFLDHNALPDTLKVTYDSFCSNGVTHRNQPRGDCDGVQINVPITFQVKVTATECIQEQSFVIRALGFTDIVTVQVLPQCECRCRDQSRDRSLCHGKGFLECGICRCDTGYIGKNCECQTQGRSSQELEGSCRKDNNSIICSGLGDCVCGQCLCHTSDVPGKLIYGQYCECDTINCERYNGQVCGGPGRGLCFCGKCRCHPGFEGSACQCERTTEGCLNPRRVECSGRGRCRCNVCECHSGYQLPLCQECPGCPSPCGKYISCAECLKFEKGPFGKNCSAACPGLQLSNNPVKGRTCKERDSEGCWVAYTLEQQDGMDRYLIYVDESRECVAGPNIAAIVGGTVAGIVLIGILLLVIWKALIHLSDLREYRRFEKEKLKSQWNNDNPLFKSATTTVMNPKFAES
Experimental: Cell-Based Assay to Determine the Effect of the Compounds on LFA-1-Mediated Cell Adhesion (LFA-1 Adhesion)
Purpose of the Assay: The V well cell adhesion assay measures the ability of the compounds to interfere with LFA-1-mediated binding to ICAM-1 at cellular level. The assay has been successfully used in the past to identify and characterize small molecules LFA-1 inhibitors.
Experimental Protocol: The adhesion assay was performed in Vbottom 96-well plates as described previously [Weitz-Schmidt 2012]. Briefly, the plates were coated with anti-human IgG mAb diluted in coating buffer (20 mM Tris containing 150 mM NaCl, pH 8) (1 μg/mL) and incubated overnight at 4° C. The plates were flicked out and blocked with blocking buffer (50 mM Tris base, 150 mM NaCl, 1.5% BSA (w/v), pH 7.2) at 37° C. for 90 min. Then human recombinant ICAM-1/Fc (R&D Systems) diluted in coating buffer (0.3 μg/mL) was added to each well. The plates were incubated at 37° C. for 90 min and washed with binding buffer (50 mM Tris base, 150 mM NaCl, 1.5% BSA (w/v), 2 mM MgCl2, 2 mM MnCl2, 5 mM D-glucose monohydrate, pH 7.2-7.4) to remove unbound ligand.
Jurkat cells were cultured under standard conditions as recommended by the American Type Culture collection (ATCC). The cells were fluorescently labelled with BCECF-AM in PBS (1 μg/mL) at 37° C. for 20 min in the dark, centrifuged and washed with PBS. The test compounds were dissolved in DMSO at 10 mM and serially pre-diluted in DMSO (100%) to avoid precipitation, before performing final dilution steps in binding buffer.
The labelled Jurkat cells were re-suspended in binding buffer and test compounds or solvent control were added. The DMSO concentration was kept constant in all samples (1% DMSO as final assay concentration). After 40 min at 37° C. (LFA-1 activation and compound pre-incubation step) the cell suspension (3×10^5 cells/mL in binding buffer) was pipetted up and down and transferred to the ligand-coated microtiter V well plates (30 000 cells/well). The plates were centrifuged for 4 min at room temperature (rt) at 1000 rpm (Centrifuge Eppendorf 5810 R), setting the brake off Non-adherent cells that accumulated in the center of the Vbottom were quantified using a fluorescence reader with the filter sets allowing excitation at 485 nm and quantification of emission at 535 nm. The determination of the half maximal inhibitory concentration (IC50) of the compounds was calculated using the software GraphPad Prism 6.

[3] = test system: HepG2 cells; experiment: Toxilight BioAssay (adenylate kinase release), HepG2; details: 24 hours exposure, mean ± SD of triplicates
Description: as §1, §2, §3, §4, §5

[4] = molecular target: T1, LFA-1; experiment: Flow cytometry, mAb R7.1 binding to LFA-1 expressed on leukocytes; details: Jurkat cells or human PBMCs, values of independent experiments; for inhibition at 1 µM: Jurkat
Experimental: Measurement of mAb R7.1 binding to LFA-1 (mAb R7.1 binding)
Purpose of the Assay: This flow cytometry assay determines the effect of the compounds on the binding of the anti-LFA-1 mAb R7.1 to LFA-1 expressed on leukocytes.
Experimental Protocol: Jurkat cells or human peripheral blood mononuclear cells (PBMCs) were resuspended in assay buffer (50 mM Tris, 150 mM NaCl, 2 mM MgCl2, 1.5% BSA and 5 mM D-glucose monohydrate, pH7.2) at 2×10^6 cells/mL and 500 μL of this cell suspension (1×10^6 cells) were transferred into polypropylene tubes containing the test compounds diluted in 500 μL assay buffer. The samples were pre-incubated at 37° C. for 40 min, and centrifuged. The supernatants were removed and FITC-labelled anti-LFA-1 mAb R7.1 and PE-labeled anti-LFA-1 mAb TS2/4 (mAb TS2/4 is not affected by alpha I allosteric inhibitor binding to LFA-1) or appropriate isotype controls were added directly to each cell pellet. The pellets were then gently pipetted up and down and incubated on ice for 30 min in the dark. After the incubation step the cells were washed twice with PBS and resuspended in PBS.
Antibody binding was analyzed by flow cytometry. Mean fluorescence intensities (MFI) were calculated using the CellQuest software. The values are expressed as % of solvent control (solvent control=100% binding).

[5] = test system: HepG2 cells; experiment: CellTiter-Glo Luminescent Cell Viability Assay (ATP), HepG2; details: 24 hours exposure, mean ± SD of triplicates
Description: as §1, §2, §3, §4, §5

[6] = molecular target: T1, LFA-1; experiment: Flow cytometry, mAb MEM148 binding to LFA-1 expressed on leukocytes; details: solvent ctrl = 1, Jurkat cells or PBMCs
Experimental: Quantification of mAb MEM148 Binding to LFA-1 (mAb MEM148 Binding)
Purpose of the Assay: This flow cytometry assay determines the effect of the compounds on the binding of the conformation-sensitive anti-LFA-1 mAb MEM148 to LFA-1 expressed on leukocytes. The mAb MEM148 detects an epitope which becomes exposed in activated LFA-1 [Yuki 2012]
Experimental Protocol: The assay is performed as the flow cytometry assay described above.
Briefly, Jurkat cells or PBMCs in assay buffer (50 mM Tris, 150 mM NaCl, 1 mM CaCl2, 1 mM MgCl2, 5 mM Glucose, 1.5% BSA, pH 7.3) were pre-incubated with the compounds and appropriate positive controls for 40 min at rt. After incubation, the cell-suspension was centrifuged, the supernatant discarded and PE-labelled anti-LFA-1 mAb MEM148 was directly added to the pellets. After pipetting up and down, the tubes were incubated for 30 min. at 37° C. in the dark. The pellet was washed twice with 1 mL PBS and resuspended in PBS. Antibody binding was quantified by flow cytometry. Mean fluorescence intensities (MFI) were calculated using the CellQuest software.

[7] = molecular target: T2, VLA-4 (Homo sapiens, UniProt P05556+P13612); experiment: V well cell adhesion assay, VLA-4-mediated Jurkat cell binding to VCAM-1 (VLA-4 adhesion); details: Jurkat cells on VCAM-1 Fc; single experiments run in triplicates
T2 construct: endogenous in cells; host or cells: Jurkat cells
T2 sequence (P13612 34-1032): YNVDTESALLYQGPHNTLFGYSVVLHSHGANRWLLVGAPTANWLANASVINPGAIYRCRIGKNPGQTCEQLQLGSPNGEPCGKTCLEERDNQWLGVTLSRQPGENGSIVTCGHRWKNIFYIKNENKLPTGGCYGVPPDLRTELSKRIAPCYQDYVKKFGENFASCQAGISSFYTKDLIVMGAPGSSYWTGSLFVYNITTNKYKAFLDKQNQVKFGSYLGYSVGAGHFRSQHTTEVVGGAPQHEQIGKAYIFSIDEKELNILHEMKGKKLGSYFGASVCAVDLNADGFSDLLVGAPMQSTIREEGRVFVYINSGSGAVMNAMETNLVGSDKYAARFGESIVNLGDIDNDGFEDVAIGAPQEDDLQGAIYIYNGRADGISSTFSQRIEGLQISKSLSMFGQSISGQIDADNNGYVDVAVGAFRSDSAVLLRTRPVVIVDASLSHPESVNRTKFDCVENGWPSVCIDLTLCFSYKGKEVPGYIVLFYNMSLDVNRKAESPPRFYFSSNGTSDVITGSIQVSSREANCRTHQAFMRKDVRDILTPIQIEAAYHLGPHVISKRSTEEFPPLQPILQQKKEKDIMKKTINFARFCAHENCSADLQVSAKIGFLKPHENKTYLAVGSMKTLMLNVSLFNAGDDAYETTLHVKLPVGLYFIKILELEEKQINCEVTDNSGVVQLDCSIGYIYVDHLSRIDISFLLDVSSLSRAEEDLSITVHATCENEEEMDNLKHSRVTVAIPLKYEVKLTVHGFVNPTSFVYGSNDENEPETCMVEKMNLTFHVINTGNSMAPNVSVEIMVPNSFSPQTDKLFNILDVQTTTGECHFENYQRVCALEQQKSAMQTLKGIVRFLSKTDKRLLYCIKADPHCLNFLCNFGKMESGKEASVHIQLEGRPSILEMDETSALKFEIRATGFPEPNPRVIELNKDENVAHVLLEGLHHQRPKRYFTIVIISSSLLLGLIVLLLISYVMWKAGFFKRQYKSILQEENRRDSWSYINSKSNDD
T2 sequence (P05556 21-798): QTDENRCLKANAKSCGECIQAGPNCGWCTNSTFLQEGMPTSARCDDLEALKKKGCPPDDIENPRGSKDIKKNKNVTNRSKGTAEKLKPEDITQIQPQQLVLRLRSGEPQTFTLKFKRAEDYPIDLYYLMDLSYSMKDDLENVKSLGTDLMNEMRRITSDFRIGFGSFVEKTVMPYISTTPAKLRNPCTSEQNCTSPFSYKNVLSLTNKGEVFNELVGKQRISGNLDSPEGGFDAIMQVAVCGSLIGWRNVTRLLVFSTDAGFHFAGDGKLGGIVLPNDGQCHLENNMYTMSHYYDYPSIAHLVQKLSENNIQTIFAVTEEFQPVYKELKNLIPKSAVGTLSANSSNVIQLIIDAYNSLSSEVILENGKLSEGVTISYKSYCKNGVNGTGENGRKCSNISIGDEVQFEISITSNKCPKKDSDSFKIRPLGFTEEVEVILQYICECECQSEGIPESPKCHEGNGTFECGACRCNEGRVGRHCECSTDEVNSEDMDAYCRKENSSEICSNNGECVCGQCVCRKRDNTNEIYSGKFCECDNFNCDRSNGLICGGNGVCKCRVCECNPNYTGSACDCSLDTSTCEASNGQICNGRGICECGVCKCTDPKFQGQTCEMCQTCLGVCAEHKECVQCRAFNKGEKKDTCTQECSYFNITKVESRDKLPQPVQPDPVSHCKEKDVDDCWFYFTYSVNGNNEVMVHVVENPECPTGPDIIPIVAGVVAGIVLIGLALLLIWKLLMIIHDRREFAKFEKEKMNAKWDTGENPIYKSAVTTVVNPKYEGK
Experimental: Cell-Based Assay to Determine the Selectivity of the Compounds Over the Integrin VLA-4 (VLA-4 Adhesion)
Purpose of the Assay: This V well cell adhesion assay measures the effect of the compounds on VLA-4-mediated Jurkat cell binding to VCAM-1. The assay has been successfully used in the past to determine the selectivity of small molecule LFA-1 inhibitors over the integrin VLA-4.
Experimental Protocol: The adhesion assay was performed as described above for the Jurkat/ICAM-1 V well adhesion assay. Briefly, plates were coated with anti-human IgG mAb and blocked with BSA as described above. Instead of ICAM-1, recombinant human VCAM-1/CD106 Fc chimera (R&D Systems) was coated onto the plates (0.3 μg/mL in coating buffer). After incubation, labelled Jurkat cells in binding buffer were transferred to the wells (20,000 cells/well). The plates were immediately centrifuged at 1000 rpm for 4 min at rt (Centrifuge Eppendorf 5810 R) setting the brakeoff. Non-adherent cells were quantified in the tip of the Vbottom well using a fluorescence reader. IC50 values of the compounds were calculated using the software GraphPad Prism 6.

[8] = test system: Jurkat cells; experiment: CellTiter-Glo Luminescent Cell Viability Assay (ATP), Jurkat; details: 24 hours exposure, mean ± SD of triplicates
Description: as §1, §2, §3, §4, §5

## C[C@]12C(=O)N(c3cc(Cl)cc(Cl)c3)C(=O)[C@H]1C2(c1ccccc1)c1ccccc1 (racemic) [4b (racemate), rac-(1S,5S)-3-(3,5-Dichlorophenyl)-1-methyl-6,6-diphenyl-3-azabicyclo[3.1.0]hexane-2,4-dione]
[1]
  Toxilight Jurkat % viability at 10 μM: 101 ± 9.8%
[2]
  IC50: 1870 ± 1270 nM
[3]
  Toxilight HepG2 % viability at 10 μM: 124 ± 29.7%
[4]
  mAb R7.1 binding % inhibition at 1 μM: 80.0%
  inhibition at 1 µM: 76.9%
[5]
  CellTiter-Glo HepG2 % viability at 10 μM: 98.4 ± 3.8%
[6]
  mAb MEM148 binding, binding relative to solvent ctrl at 10 μM: 0.974
[7]
  IC50: > 10000 nM
[8]
  CellTiter-Glo Jurkat % viability at 10 μM: 96.8 ± 4.7%

## C[C@]12C(=O)N(c3cc(Cl)cc(Cl)c3)C(=O)[C@H]1[C@H]2c1ccc(Br)cc1 (racemic) [4′f (racemate), rac-(1R,5S,6S)-6-(4-Bromophenyl)-3-(3,5-dichloro-phenyl)-1-methyl-3-azabicyclo[3.1.0]hexane-2,4-dione]
[1]
  Toxilight Jurkat % viability at 10 μM: 99.9 ± 24.2%
[2]
  IC50: 715 ± 618 nM
[3]
  Toxilight HepG2 % viability at 10 μM: 115.6 ± 35.1%
[4]
  mAb R7.1 binding % inhibition at 1 μM: 91.7%
  inhibition at 1 µM: 85.2%
[5]
  CellTiter-Glo HepG2 % viability at 10 μM: 101.6 ± 4.0%
[6]
  mAb MEM148 binding, binding relative to solvent ctrl at 10 μM: 0.96
[7]
  IC50: > 10000 nM
[8]
  CellTiter-Glo Jurkat % viability at 10 μM: 115.0 ± 4.8%

## C[C@]12C(=O)N(c3cc(Cl)cc(Cl)c3)C(=O)[C@H]1[C@H]2c1ccc(OC(F)(F)F)cc1 (racemic) [4′g (racemate), rac-(1R,5S,6S)-3-(3,5-Dichlorophenyl)-1-methyl-6-[4-(trifluoromethoxy)phenyl]-3-azabicyclo[3.1.0]hexane-2,4-dione]
[1]
  Toxilight Jurkat % viability at 10 μM: 116 ± 16.2%
[2]
  IC50: 550 ± 206 nM
[3]
  Toxilight HepG2 % viability at 10 μM: 99.8 ± 26.5%
[4]
  mAb R7.1 binding % inhibition at 1 μM: 94.1%
  inhibition at 1 µM: 93.6%
[5]
  CellTiter-Glo HepG2 % viability at 10 μM: 102.6 ± 4.5%
[6]
  mAb MEM148 binding, binding relative to solvent ctrl at 10 μM: 0.89
[7]
  IC50: > 10000 nM
[8]
  CellTiter-Glo Jurkat % viability at 10 μM: 111.4 ± 7.4%

## C[C@]12C(=O)N(c3cc(Cl)cc(Cl)c3)C(=O)[C@H]1[C@H]2c1ccc(C#N)cc1 (racemic) [4′h (racemate), rac-4-[(1R,5S,6S)-3-(3,5-Dichlorophenyl)-1-methyl-2,4-dioxo-3-azabicyclo[3.1.0]hexan-6-yl]benzonitrile]
[1]
  Toxilight Jurkat % viability at 10 μM: 93.5 ± 2.06%
[2]
  IC50: 147 nM
[3]
  Toxilight HepG2 % viability at 10 μM: 78.3 ± 35.2%
[4]
  mAb R7.1 binding % inhibition at 1 μM: 95.8%
  inhibition at 1 µM: 96.8%
[5]
  CellTiter-Glo HepG2 % viability at 10 μM: 103.7 ± 3.2%
[6]
  mAb MEM148 binding, binding relative to solvent ctrl at 10 μM: 1.00
[7]
  IC50: > 10000 nM
[8]
  CellTiter-Glo Jurkat % viability at 10 μM: 112.6 ± 4.9%

## CCOC(=O)[C@@]1(c2ccc(Br)cc2)[C@@H]2C(=O)N(c3cc(Cl)cc(Cl)c3)C(=O)[C@@]21C (racemic) [4′j (racemate), rac-Ethyl-(1 S, 5R, 6R)-6-(4-bromophenyl)-3-(3,5-dichlorophenyl)-1-methyl-2,4-dioxo-3-azabicyclo[3.1.0]-hexane-6-carboxylate]
[2]
  IC50: 375 ± 204 nM
[4]
  inhibition at 1 µM: 93.6%
[6]
  mAb MEM148 binding, binding relative to solvent ctrl at 10 μM: 0.738
[7]
  IC50: > 10000 nM

## CC12C(=O)N(c3cc(Cl)cc(Cl)c3)C(=O)C1C2(c1ccccc1)c1ccccc1 (single isomer, unassigned) [4b enantiomer A]
[1]
  Toxilight Jurkat % viability at 10 μM: 100 ± 12.9%
[2]
  IC50: 1340 ± 678 nM
[3]
  Toxilight HepG2 % viability at 10 μM: 120 ± 40.2%
[4]
  inhibition at 1 µM: 87.3%
[5]
  CellTiter-Glo HepG2 % viability at 10 μM: 101.5 ± 1.9%
[6]
  mAb MEM148 binding, binding relative to solvent ctrl at 10 μM: no
[7]
  IC50: > 10000 nM
[8]
  CellTiter-Glo Jurkat % viability at 10 μM: 92.8 ± 4.7%

## CC12C(=O)N(c3cc(Cl)cc(Cl)c3)C(=O)C1C2(c1ccc(C#N)cc1)c1ccc(OC(F)(F)F)cc1 (single isomer, unassigned) [4i/4′i diastereomer II (racemate), rac-4-[(1 S, 5S, 6S)- and rac-4-(1 S, 5S, 6R)-3-(3,5-Dichlorophenyl)-1-methyl-2,4-dioxo-6-[4-(trifluoro-methoxy)-phenyl]-3-azabicyclo[3.1.0]hexan-6-yl]benzonitrile]
[2]
  IC50: 18 ± 14 nM
[4]
  inhibition at 1 µM: 98.6%
[6]
  mAb MEM148 binding, binding relative to solvent ctrl at 10 μM: 0.937
[7]
  IC50: > 10000 nM
